How the values were obtained:
[1] = system: Otodectes cynotis; assay: Spot-on efficacy against Otodectes cynotis (ear mites) in cats (Example 12); format: in vivo; conditions: live mite count Day 14
Procedure: The efficacy of two spot-on compositions comprising Compound A at doses of 5 mg/kg and 10 mg/kg against Otodectes cynotis in cats was evaluated compared to an untreated control. Eighteen healthy cats were grouped into three study groups consisting of six cats per group. Cats in the treatment groups were infested with Otodectes cynotis obtained from naturally infested donor cats prior to acclimation on Day −7. Group 1 was an untreated control group. Cats in Groups 2 and 3 were treated once on Day 0 with a spot-on composition comprising Compound A at two different concentrations and doses by application of the formulation directly on the skin in the midline of the neck between the base of the skull and the shoulder blades with a 1 mL disposable syringe. Cats in Group 2 were treated with a spot-on composition containing 5.0% (w/v) Compound A in a carrier containing 40% (v/v) diethyl sebacate (DES) in dimethylisosorbide (DMI) at a dose of 5 mg/kg body weight; and cats in Group 3 were treated with a spot-on composition containing 10.0% (w/v) Compound A in a carrier containing 40% (v/v) DES in DMI at a dose of 10 mg/kg body weight. […] Visible live ear mites (adult or immature) were counted and debris/cerumen level was estimated for both ear ducts. A quantitative assessment of ear mites by ear duct flushing, mite collection and live mite count was performed on Day 14. […]

[2] = Accelerated stability of Cmpd. A in solvents at 50° C.; format: physicochemical
From the text: An important aspect of the invention is to provide a multiple-use container comprising a topical composition of the invention, from which accurate single dose aliquots of the long lasting topical formulations may be administered. The formulation must remain stable with repetitive exposure to the outside environment, particularly oxygen and water. This embodiment may be particularly useful with the very long lasting formulations of the invention that require administration to an animal infrequently, such as once every 3-6 months, or similar. Some solvents such as ethers (including DMI, Transcutol® and the like) give rise to peroxides, which then yield ketones and aldehydes that may be further degraded to acids. The presence of acids may contribute to the degradation of acid hydrolysis-susceptible molecules, including isoxazoline active agents. Thus, formulation stability is particularly important for the multi-dose container application, where the formulations can be exposed to oxygen and water during multiple rounds of opening and closing. […]

[3] = system: Amblyomma americanum; assay: Dose characterization of spot-on formulations against Amblyomma americanum ticks in dogs (Example 4); format: in vivo
Procedure: The efficacy of a spot-on composition of the invention comprising an isoxazoline compound (Cmpd. A) in a carrier vehicle comprising either DES alone or DES+lauryl lactate (LL), against ticks (Amblyomma americanum), in dogs was studied. The compositions contained 3.0%, 4.5%, or 6.0% Cmpd. A in either DES alone or DES+lauryl lactate, which delivered doses of […], respectively, of Cmpd. A to dogs infested with A. Americanum ticks.
Seven Treatment Groups were evaluated. Treatment Group 1 was administered a placebo formulation and served as a control. Treatment Groups 2, 3 and 4 were administered a topical formulation comprising 6.0% (w/v), 4.5% (w/v) and 3.0% (w/v) of Cmpd. A in DES, respectively, corresponding to doses of 4.0 mg/kg, 3.0 mg/kg and 2.0 mg/kg, respectively. Treatment Groups 5, 6 and 7 were administered a topical formulation comprising 6.0% (w/v), 4.5% (w/v) and 3.0% (w/v) of Cmpd. A in DES+9% lauryl lactate, respectively, corresponding to doses of […], 3.0 mg/kg and 2.0 mg/kg body weight Cmpd. A, respectively.
All dogs were treated once topically on Day 0 by parting the hair and applying the solution from a syringe directly onto the skin in a single spot on the midline of the neck between the base of the skull and the shoulder blades.
All dogs were infested with approximately 50 A. americanum on Days −1, 7, 14, 21, 28, 35 and 42. Ticks were counted upon removal on Days 2, 9, 16, 23, 30, 37 and 44. The % reduction of ticks for each Group is presented Table 5 below.

## O=C(CNC(=O)c1ccc(C2=NOC(c3cc(Cl)cc(C(F)(F)F)c3)(C(F)(F)F)C2)c2ccccc12)NCC(F)(F)F (stereo not drawn) [Compound A, 4-[5-[3-chloro-5-(trifluoromethyl)phenyl]-4,5-dihydro-5-(trifluoromethyl)-3-isoxazolyl]-N-[2-oxo-2-[(2,2,2-trifluoroethyl)amino]ethyl]-1-naphthalanecarboxamide]
[1]; Group 2: 5.0% in 40% DES in DMI, 5 mg/kg
  reduced the infestation of ear mites: 99.0%
[1]; Group 3: 10.0% in 40% DES in DMI, 10 mg/kg
  reduced the infestation of ear mites: 100.0%
[2]; 12% (w/v) solution in DMI, eleven week, 50° C., clear glass containers
  change in assay, accelerated stability study: no significant change in assay
[2]; DES, DIPA, DMI, triacetin, GF and propylene carbonate, 50° C. in glass bottles
  stability in solvents: stable
[3]; Group 2: 6.0% in DES, 4.0 mg/kg, Day 2
  % Reduction Ticks: 97.4%
[3]; Group 2: 6.0% in DES, 4.0 mg/kg, Day 9
  % Reduction Ticks: 100.0%
[3]; Group 2: 6.0% in DES, 4.0 mg/kg, Day 16
  % Reduction Ticks: 100.0%
[3]; Group 2: 6.0% in DES, 4.0 mg/kg, Day 23
  % Reduction Ticks: 100.0%
[3]; Group 2: 6.0% in DES, 4.0 mg/kg, Day 30
  % Reduction Ticks: 82.5%
[3]; Group 2: 6.0% in DES, 4.0 mg/kg, Day 37
  % Reduction Ticks: 97.9%
[3]; Group 2: 6.0% in DES, 4.0 mg/kg, Day 44
  % Reduction Ticks: 84.2%
[3]; Group 3: 4.5% in DES, 3.0 mg/kg, Day 2
  % Reduction Ticks: 90.0%
[3]; Group 3: 4.5% in DES, 3.0 mg/kg, Day 9
  % Reduction Ticks: 100.0%
[3]; Group 3: 4.5% in DES, 3.0 mg/kg, Day 16
  % Reduction Ticks: 97.6%
[3]; Group 3: 4.5% in DES, 3.0 mg/kg, Day 23
  % Reduction Ticks: 82.0%
[3]; Group 3: 4.5% in DES, 3.0 mg/kg, Day 30
  % Reduction Ticks: 70.0%
[3]; Group 3: 4.5% in DES, 3.0 mg/kg, Day 37
  % Reduction Ticks: 80.4%
[3]; Group 3: 4.5% in DES, 3.0 mg/kg, Day 44
  % Reduction Ticks: 56.0%
[3]; Group 4: 3.0% in DES, 2.0 mg/kg, Day 2
  % Reduction Ticks: 95.4%
[3]; Group 4: 3.0% in DES, 2.0 mg/kg, Day 9
  % Reduction Ticks: 100.0%
[3]; Group 4: 3.0% in DES, 2.0 mg/kg, Day 16
  % Reduction Ticks: 100.0%
[3]; Group 4: 3.0% in DES, 2.0 mg/kg, Day 23
  % Reduction Ticks: 79.5%
[3]; Group 4: 3.0% in DES, 2.0 mg/kg, Day 30
  % Reduction Ticks: 90.3%
[3]; Group 4: 3.0% in DES, 2.0 mg/kg, Day 37
  % Reduction Ticks: 57.1%
[3]; Group 4: 3.0% in DES, 2.0 mg/kg, Day 44
  % Reduction Ticks: 38.8%
[3]; Group 5: 6.0% in DES+9% lauryl lactate, 4.0 mg/kg, Day 2
  % Reduction Ticks: 100.0%
[3]; Group 5: 6.0% in DES+9% lauryl lactate, 4.0 mg/kg, Day 9
  % Reduction Ticks: 100.0%
[3]; Group 5: 6.0% in DES+9% lauryl lactate, 4.0 mg/kg, Day 16
  % Reduction Ticks: 100.0%
[3]; Group 5: 6.0% in DES+9% lauryl lactate, 4.0 mg/kg, Day 23
  % Reduction Ticks: 94.3%
[3]; Group 5: 6.0% in DES+9% lauryl lactate, 4.0 mg/kg, Day 30
  % Reduction Ticks: 100.0%
[3]; Group 5: 6.0% in DES+9% lauryl lactate, 4.0 mg/kg, Day 37
  % Reduction Ticks: 89.0%
[3]; Group 5: 6.0% in DES+9% lauryl lactate, 4.0 mg/kg, Day 44
  % Reduction Ticks: 84.8%
[3]; Group 6: 4.5% in DES+9% lauryl lactate, 3.0 mg/kg, Day 2
  % Reduction Ticks: 98.4%
[3]; Group 6: 4.5% in DES+9% lauryl lactate, 3.0 mg/kg, Day 9
  % Reduction Ticks: 100.0%
[3]; Group 6: 4.5% in DES+9% lauryl lactate, 3.0 mg/kg, Day 16
  % Reduction Ticks: 100.0%
[3]; Group 6: 4.5% in DES+9% lauryl lactate, 3.0 mg/kg, Day 23
  % Reduction Ticks: 93.1%
[3]; Group 6: 4.5% in DES+9% lauryl lactate, 3.0 mg/kg, Day 30
  % Reduction Ticks: 92.1%
[3]; Group 6: 4.5% in DES+9% lauryl lactate, 3.0 mg/kg, Day 37
  % Reduction Ticks: 89.0%
[3]; Group 6: 4.5% in DES+9% lauryl lactate, 3.0 mg/kg, Day 44
  % Reduction Ticks: 53.6%
[3]; Group 7: 3.0% in DES+9% lauryl lactate, 2.0 mg/kg, Day 2
  % Reduction Ticks: 98.4%
[3]; Group 7: 3.0% in DES+9% lauryl lactate, 2.0 mg/kg, Day 9
  % Reduction Ticks: 100.0%
[3]; Group 7: 3.0% in DES+9% lauryl lactate, 2.0 mg/kg, Day 16
  % Reduction Ticks: 100.0%
[3]; Group 7: 3.0% in DES+9% lauryl lactate, 2.0 mg/kg, Day 23
  % Reduction Ticks: 80.6%
[3]; Group 7: 3.0% in DES+9% lauryl lactate, 2.0 mg/kg, Day 30
  % Reduction Ticks: 88.9%
[3]; Group 7: 3.0% in DES+9% lauryl lactate, 2.0 mg/kg, Day 37
  % Reduction Ticks: 74.6%
[3]; Group 7: 3.0% in DES+9% lauryl lactate, 2.0 mg/kg, Day 44
  % Reduction Ticks: 42.4%
[3]; Treatment Group 2 (4.0 mg/kg in DES alone), through Week 3
  efficacy against ticks: at least 90%
[3]; Treatment Groups 5 and 6 (4.0 and 3.0 mg/kg in DES+LL), through five weeks
  efficacy against ticks: at least 90%
